For data set [1], the target named is Cystic fibrosis transmembrane conductance regulator (Homo sapiens, UniProt P13569, F508DEL). The experiment in a line: Activation of CFTR F508del mutant (unknown origin).
The test system of data set [2] is Bacillus cereus. The experiment in a line: microbe, parasite or virus in culture. As to conditions: ATTC 10876.
Description: Antibacterial activity against Bacillus cereus ATTC 10876 assessed as reduction in bacterial growth incubated for 18 to 24 hrs by broth microdilution method
The test system of data set [3] is Enterococcus faecalis. Description: microbe, parasite or virus in culture. The conditions noted are these: ATTC 29212, 24 h.
Description: Antibacterial activity against Enterococcus faecalis ATCC 29212 assessed as reduction in bacterial growth incubated for 24 hrs by CLSI protocol based assay
Data set [4] deals with Staphylococcus aureus. Description: microbe, parasite or virus in culture. As to conditions: ATCC 25923.
Description: Antibacterial activity against Staphylococcus aureus ATCC 25923 assessed as reduction in bacterial growth incubated for 18 to 24 hrs by broth microdilution method
The test system of data set [5] is Enterococcus faecalis. Description: microbe, parasite or virus in culture. As to conditions: ATCC 29212, 24 h.
Description: Antibacterial activity against Enterococcus faecalis ATCC 29212 assessed as inhibition of bacterial growth incubated for 24 hrs by broth microdilution method
Data set [6] concerns Proteus mirabilis. Description: microbe, parasite or virus in culture. As to conditions: ATCC 35659.
Description: Antibacterial activity against Proteus mirabilis ATCC 35659 assessed as reduction in bacterial growth incubated for 18 to 24 hrs by broth microdilution method
Data set [7] concerns Escherichia coli. The experiment in a line: microbe, parasite or virus in culture. The conditions noted are these: ATCC 25922.
Description: Antibacterial activity against Escherichia coli ATCC 25922 assessed as reduction in bacterial growth incubated for 18 to 24 hrs by broth microdilution method
The test system of data set [8] is Pseudomonas aeruginosa. The experiment in a line: microbe, parasite or virus in culture. The conditions noted are these: ATCC 27853.
Description: Antimicrobial activity against Pseudomonas aeruginosa ATCC 27853 assessed as inhibition of microbial growth by CLSI protocol based two-fold serial broth microdilution method
Data set [9] can be described thus: Antioxidant activity assessed as DPPH radical scavenging activity incubated for 30 mins. A general note: DPPH is a stable violet radical that fades when it is reduced.
Data set [10] concerns Staphylococcus aureus. Description: microbe, parasite or virus in culture. The conditions noted are these: NCTC 13616, 20 h.
Description: Antibacterial activity against methicillin-resistant Staphylococcus aureus NCTC 13616 assessed as reduction in bacterial growth incubated for 20 hrs by broth micro-dilution method
Data set [11] relates to Bacillus subtilis. The experiment in a line: microbe, parasite or virus in culture. The conditions noted are these: ATCC 6633, 20 h.
Description: Antibacterial activity against Bacillus subtilis ATCC 6633 assessed as bacterial growth inhibition measured for 20 hrs by micro-broth dilution method
In data set [12] the test system is Bacillus cereus. The experiment in a line: microbe, parasite or virus in culture. As to conditions: ATCC 14579.
Description: Antibacterial activity against Bacillus cereus ATCC 14579 assessed as reduction in bacterial growth incubated for 18 to 24 hrs by broth microdilution method
Data set [13] relates to Klebsiella pneumoniae. The experiment in a line: microbe, parasite or virus in culture. As to conditions: ATCC 43816, 20 h.
Description: Antimicrobial activity against Klebsiella pneumoniae ATCC 43816 assessed as reduction in bacterial growth incubated for 20 hrs by broth microdilution analysis
In data set [14] the test system is Escherichia coli. The experiment in a line: microbe, parasite or virus in culture. As to conditions: ATCC 8739, 20 h.
Description: Antimicrobial activity against Escherichia coli ATCC 8739 assessed as reduction in bacterial growth incubated for 20 hrs by broth microdilution analysis
Data set [15] relates to Proteus vulgaris. The experiment in a line: microbe, parasite or virus in culture. The conditions noted are these: ATCC 13315, 24 h.
Description: Antimicrobial activity against Proteus vulgaris ATCC 13315 assessed as microbial growth inhibition incubated for 24 hrs by broth microdilution method
Data set [16] relates to MCF7. Description: Cytotoxicity against human MCF7 cells assessed as reduction in cell viability incubated for 72 hrs by MTT assay. As to conditions: MCF7, 72 h. (Tetrazolium assays rely on reduction of a dye to a coloured formazan, in cell work by metabolically active cells.)
For data set [17], the system named is HT-29. Description: Cytotoxicity against human HT-29 cells assessed as reduction in cell viability incubated for 72 hrs by MTT assay. As to conditions: HT-29, 72 h.
Data set [18] has as its system MOLT-4. Description: Cytotoxicity against human MOLT-4 cells assessed as reduction in cell viability incubated for 72 hrs by MTT assay. As to conditions: MOLT-4, 72 h.
The nature of data set [19]: Cytotoxicity against CHO-K1 cells assessed as reduction in cell growth incubated for 72 hrs by MTT assay. The conditions noted are these: Chinese hamster (Cricetulus griseus).
Data set [20] has as its system K562. The experiment in a line: Antiproliferative activity against human K562 cells assessed as reduction in cell viability incubated for 72 hrs by MTT assay. As to conditions: K562, 72 h.
The subject of data set [21] is HCT-116. Description: Antiproliferative activity against human HCT-116 cells assessed as reduction in cell viability incubated for 72 hrs by MTT assay. The conditions noted are these: HCT-116, 72 h.
Data set [22] addresses T1, UDP-N-acetylglucosamine--peptide N-acetylglucosaminyltransferase 110 kDa subunit (Homo sapiens, UniProt O15294).
T1 sequence (O15294 whole entry): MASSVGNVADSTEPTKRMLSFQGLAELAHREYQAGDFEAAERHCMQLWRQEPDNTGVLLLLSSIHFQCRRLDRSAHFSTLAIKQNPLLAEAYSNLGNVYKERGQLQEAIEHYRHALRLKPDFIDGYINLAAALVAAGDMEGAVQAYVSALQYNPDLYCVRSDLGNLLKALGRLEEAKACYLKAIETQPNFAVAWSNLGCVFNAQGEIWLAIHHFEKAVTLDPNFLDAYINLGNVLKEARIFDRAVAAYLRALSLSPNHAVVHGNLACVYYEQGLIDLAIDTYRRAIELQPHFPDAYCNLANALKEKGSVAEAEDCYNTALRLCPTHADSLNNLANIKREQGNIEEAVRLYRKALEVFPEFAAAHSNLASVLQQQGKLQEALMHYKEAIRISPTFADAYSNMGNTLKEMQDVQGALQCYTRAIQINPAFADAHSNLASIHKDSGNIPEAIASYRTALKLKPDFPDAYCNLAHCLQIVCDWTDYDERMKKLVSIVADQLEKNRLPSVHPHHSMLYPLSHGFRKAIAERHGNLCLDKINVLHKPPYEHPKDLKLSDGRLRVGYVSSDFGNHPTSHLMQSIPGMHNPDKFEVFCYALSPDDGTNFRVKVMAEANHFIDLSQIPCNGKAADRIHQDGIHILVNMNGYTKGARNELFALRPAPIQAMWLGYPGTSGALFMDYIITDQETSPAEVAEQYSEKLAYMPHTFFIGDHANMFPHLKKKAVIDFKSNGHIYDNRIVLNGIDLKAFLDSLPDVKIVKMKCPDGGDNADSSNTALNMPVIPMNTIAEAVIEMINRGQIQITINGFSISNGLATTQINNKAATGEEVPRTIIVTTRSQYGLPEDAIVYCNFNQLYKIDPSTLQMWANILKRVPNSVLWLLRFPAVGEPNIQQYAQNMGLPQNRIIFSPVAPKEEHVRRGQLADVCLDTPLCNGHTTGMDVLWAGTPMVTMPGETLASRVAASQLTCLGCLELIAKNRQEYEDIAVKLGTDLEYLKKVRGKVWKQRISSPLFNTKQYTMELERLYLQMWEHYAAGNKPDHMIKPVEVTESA
Description: Binding affinity to human recombinant OGT (312 to 1031 residue) assessed as inhibition constant by fluorescence based analysis

pIC50, pKi: −log10 of the molar value. Converted amounts (≈) assume the structure as drawn.

Broadly, the pIC50 is −log10 of the IC50, conventionally taken in molar units. By IC50 is commonly meant the point on the concentration scale where inhibition reaches its midpoint. What is called pKi is −log10 of the Ki, conventionally taken in molar units.

Sequence of Cystic fibrosis transmembrane conductance regulator (P13569 as listed by the source): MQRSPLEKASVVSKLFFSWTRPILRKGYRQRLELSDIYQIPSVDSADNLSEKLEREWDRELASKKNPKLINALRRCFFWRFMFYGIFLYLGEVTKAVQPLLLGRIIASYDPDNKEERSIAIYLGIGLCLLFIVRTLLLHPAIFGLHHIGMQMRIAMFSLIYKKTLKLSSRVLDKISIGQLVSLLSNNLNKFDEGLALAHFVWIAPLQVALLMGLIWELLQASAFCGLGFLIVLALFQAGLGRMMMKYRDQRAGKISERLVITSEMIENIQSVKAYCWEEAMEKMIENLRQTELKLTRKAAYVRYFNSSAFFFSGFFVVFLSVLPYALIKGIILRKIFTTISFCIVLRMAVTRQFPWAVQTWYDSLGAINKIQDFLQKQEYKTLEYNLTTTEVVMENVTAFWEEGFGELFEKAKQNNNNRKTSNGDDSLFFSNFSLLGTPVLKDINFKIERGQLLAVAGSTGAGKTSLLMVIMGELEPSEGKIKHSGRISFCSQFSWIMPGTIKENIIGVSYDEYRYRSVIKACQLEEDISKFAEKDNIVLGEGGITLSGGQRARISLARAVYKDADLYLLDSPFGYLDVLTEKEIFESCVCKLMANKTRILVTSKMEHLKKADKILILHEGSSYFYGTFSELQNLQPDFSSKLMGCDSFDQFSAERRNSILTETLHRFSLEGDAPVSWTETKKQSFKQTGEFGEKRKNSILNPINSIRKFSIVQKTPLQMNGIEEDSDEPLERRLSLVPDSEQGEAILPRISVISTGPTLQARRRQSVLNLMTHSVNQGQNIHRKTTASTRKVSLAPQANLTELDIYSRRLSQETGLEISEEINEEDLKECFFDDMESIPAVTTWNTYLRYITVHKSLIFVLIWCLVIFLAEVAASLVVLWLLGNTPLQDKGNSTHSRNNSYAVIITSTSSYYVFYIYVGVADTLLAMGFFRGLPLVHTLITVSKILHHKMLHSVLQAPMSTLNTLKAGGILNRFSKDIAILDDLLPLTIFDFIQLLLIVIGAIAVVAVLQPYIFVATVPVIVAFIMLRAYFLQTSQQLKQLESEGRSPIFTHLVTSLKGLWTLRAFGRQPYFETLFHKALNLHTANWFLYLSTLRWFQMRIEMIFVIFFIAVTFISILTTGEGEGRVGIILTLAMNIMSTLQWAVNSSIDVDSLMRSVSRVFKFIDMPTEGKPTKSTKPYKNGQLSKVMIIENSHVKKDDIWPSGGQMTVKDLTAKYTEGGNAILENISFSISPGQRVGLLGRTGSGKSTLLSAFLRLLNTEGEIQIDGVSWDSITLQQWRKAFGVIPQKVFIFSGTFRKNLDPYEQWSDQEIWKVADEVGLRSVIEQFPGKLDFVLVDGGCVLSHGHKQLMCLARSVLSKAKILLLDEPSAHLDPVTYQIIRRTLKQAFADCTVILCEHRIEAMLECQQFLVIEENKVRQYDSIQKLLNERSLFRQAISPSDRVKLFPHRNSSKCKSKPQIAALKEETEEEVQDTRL

For `Cc1ccc(-n2cc(C3(c4ccc5c(c4)OC(F)(F)O5)CC3)nn2)cc1-c1cccc(C(=O)O)c1`, the pIC50 in data set [1] was 6.18.
Take `CCCCCCCCCCCCn1nnc(-c2n[nH]c(=S)n2N)c1-c1n[nH]c(=S)n1N`: the MIC in data set [2], in data set [3], in [4], in data set [5], in data set [6] and in data set [7] was 1 µM (≈ 0.466 µg/mL) throughout. The molecule also gave an MIC in data set [8] of 1 µM (≈ 0.466 µg/mL).
Regarding `CCCCc1cn(CCCOc2ccc(-c3cc(=O)c4ccccc4o3)cc2)nn1`, in [9], the negative logarithm of the IC50 (pIC50) is 4.53.
The same measure, in the same setting: under `CCCCCc1ccc(-c2cn(CCCOc3ccc(-c4cc(=O)c5ccccc5o4)cc3)nn2)cc1` stands 4.44.
Take `CC(C)Cc1ccc(C(C)C(=O)c2ccc(OCc3cn(-c4cccc(Cl)c4)nn3)cc2O)cc1` (stereo not drawn): the MIC in [10], in data set [11], in data set [12], in data set [13], in data set [14] and in [15] was 12 µg/mL (≈ 24.5 µM) in each case.
On to `O=C1C=C(NCc2cn(Cc3ccc(C(F)(F)F)cc3)nn2)C(=O)c2ccccc21`, for which the pIC50 in [16] was 4.98; in data set [17], 5.17; in data set [18] it was 4.98.
Regarding `CC(C)Cc1ccc(C(C)C(=O)c2ccc(OCc3cn(-c4ccc([N+](=O)[O-])cc4)nn3)cc2O)cc1` (stereo not drawn), the MIC in data set [10], in [11], in [12], in [13], in [14] and in data set [15] was 12 µg/mL (≈ 24 µM) in each case.
As for `CC(C)Cc1ccc(C(C)C(=O)c2ccc(OCc3cn(C4CCCC4)nn3)cc2O)cc1` (stereo not drawn), the MIC in [10], in [11], in data set [12], in [13], in [14] and in data set [15] was 12 µg/mL (≈ 26.8 µM) each time.
For `CC(C)Cc1ccc(C(C)C(=O)c2ccc(OCc3cn(-c4ccccc4Cl)nn3)cc2O)cc1` (stereo not drawn), the MIC in data set [10], in data set [11], in [12], in [13], in data set [14] and in data set [15] was 12 µg/mL (≈ 24.5 µM) throughout.
Consider `O=C(Cn1cc(CSc2nc3cc(OC(F)F)ccc3[nH]2)nn1)NC1CCCCC1`, for which the IC50 at 72 h in data set [19] was determined as 53.3 µM.
As for `CCCCCCCCCCCCCCn1nnc(-c2n[nH]c(=S)n2N)c1-c1n[nH]c(=S)n1N`, the MIC in data set [2], in [3], in [4], in data set [5], in data set [6] and in [7] was 1 µM (≈ 0.494 µg/mL) in each case. In [8], this molecule showed an MIC of 1 µM (≈ 0.494 µg/mL).
For `CCCCCCCCCCn1nnc(-c2n[nH]c(=S)n2N)c1-c1n[nH]c(=S)n1N`, the MIC in data set [2], in data set [3], in data set [4], in data set [5], in [6] and in data set [7] was 1 µM (≈ 0.438 µg/mL) each time. The same molecule returned an MIC in data set [8] of 1 µM (≈ 0.438 µg/mL).
`COC(=O)CC[C@@H](C)[C@H]1CC[C@H]2[C@@H]3[C@@H](O)C[C@@H]4C[C@H](n5cc(CCCCC#Cc6nc7c(N)ncnc7n6[C@@H]6O[C@H](CO)[C@@H](C)[C@H]6C)nn5)CC[C@]4(C)[C@H]3CC[C@]12C`: the pIC50 in [20] is 5.07; in [21] it was 4.64.
On to `CC(C)Cc1ccc(C(C)C(=O)c2ccc(OCc3cn(-c4ccc(Br)cc4)nn3)cc2O)cc1` (stereo not drawn), for which the MIC in data set [10], in data set [11], in [12], in [13], in [14] and in data set [15] was 12 µg/mL (≈ 22.5 µM) in each case.
On to `CCCCCCCCCCCCCCCCn1nnc(-c2n[nH]c(=S)n2N)c1-c1n[nH]c(=S)n1N`, for which the MIC in data set [2], in [3], in [4], in data set [5], in data set [6] and in data set [7] was 1 µM (≈ 0.522 µg/mL) throughout. In data set [8], the MIC stood at 1 µM (≈ 0.522 µg/mL).
For `CCCCCCCCn1cc(COc2ccc(C(=O)C(C)c3ccc(CC(C)C)cc3)c(O)c2)nn1` (stereo not drawn), the MIC in data set [10], in data set [11], in data set [12], in data set [13], in [14] and in data set [15] was 12 µg/mL (≈ 24.4 µM) each time.
`CC(C)Cc1ccc(C(C)C(=O)c2ccc(OCc3cn(-c4ccc(Cl)cc4)nn3)cc2O)cc1` (stereo not drawn): the MIC in data set [10], in data set [11], in data set [12], in data set [13], in data set [14] and in data set [15] was 12 µg/mL (≈ 24.5 µM) throughout.
For the molecule `CC(=O)N[C@H]1C(n2cc(COP(=O)(O)OC[C@H]3O[C@@H](n4ccc(=O)[nH]c4=O)[C@H](O)[C@@H]3O)nn2)O[C@H](CO)[C@@H](O)[C@@H]1O` (stereo partly drawn), in [22], the pKi was 3.63.
On to `O=c1cc(-c2ccc(OCCCn3cc(-c4cc5ccccc5c5ccccc45)nn3)cc2)oc2ccccc12`, for which the pIC50 in data set [9] is 4.54.
As for `CCCCCCCCCCCCn1cc(COc2ccc(C(=O)C(C)c3ccc(CC(C)C)cc3)c(O)c2)nn1` (stereo not drawn), the MIC in data set [10], in data set [11], in [12], in [13], in [14] and in data set [15] was 12 µg/mL (≈ 21.9 µM) each time.
As for `CC(C)Cc1ccc(C(C)C(=O)c2ccc(OCc3cn(-c4ccccc4)nn3)cc2O)cc1` (stereo not drawn), the MIC in [10], in data set [11], in [12], in data set [13], in data set [14] and in data set [15] was 12 µg/mL (≈ 26.3 µM) throughout.

The values above are taken from ChEMBL document CHEMBL6074626, “Recent advances in triazole synthesis via click chemistry and their pharmacological applications: A review” (Bioorg Med Chem Lett, 2024).
